# Reference: patent US20080176261A1, “Colorimetric Substrate and Methods for Detecting Poly(ADP-ribose) Polymerase Activity including PARP Enzymes PARP-1, VPARP, and Tankyrase-1” (THE BOARD OF TRUSTEES OF THE UNIVERSITY OF ILLINOIS, priority 2007, published 2008)
# Read-outs that look alike come from different tables or passages of the source.
# T1: tankyrase-1 (Homo sapiens, UniProt O95271)
# T1 sequence (O95271 1-1327): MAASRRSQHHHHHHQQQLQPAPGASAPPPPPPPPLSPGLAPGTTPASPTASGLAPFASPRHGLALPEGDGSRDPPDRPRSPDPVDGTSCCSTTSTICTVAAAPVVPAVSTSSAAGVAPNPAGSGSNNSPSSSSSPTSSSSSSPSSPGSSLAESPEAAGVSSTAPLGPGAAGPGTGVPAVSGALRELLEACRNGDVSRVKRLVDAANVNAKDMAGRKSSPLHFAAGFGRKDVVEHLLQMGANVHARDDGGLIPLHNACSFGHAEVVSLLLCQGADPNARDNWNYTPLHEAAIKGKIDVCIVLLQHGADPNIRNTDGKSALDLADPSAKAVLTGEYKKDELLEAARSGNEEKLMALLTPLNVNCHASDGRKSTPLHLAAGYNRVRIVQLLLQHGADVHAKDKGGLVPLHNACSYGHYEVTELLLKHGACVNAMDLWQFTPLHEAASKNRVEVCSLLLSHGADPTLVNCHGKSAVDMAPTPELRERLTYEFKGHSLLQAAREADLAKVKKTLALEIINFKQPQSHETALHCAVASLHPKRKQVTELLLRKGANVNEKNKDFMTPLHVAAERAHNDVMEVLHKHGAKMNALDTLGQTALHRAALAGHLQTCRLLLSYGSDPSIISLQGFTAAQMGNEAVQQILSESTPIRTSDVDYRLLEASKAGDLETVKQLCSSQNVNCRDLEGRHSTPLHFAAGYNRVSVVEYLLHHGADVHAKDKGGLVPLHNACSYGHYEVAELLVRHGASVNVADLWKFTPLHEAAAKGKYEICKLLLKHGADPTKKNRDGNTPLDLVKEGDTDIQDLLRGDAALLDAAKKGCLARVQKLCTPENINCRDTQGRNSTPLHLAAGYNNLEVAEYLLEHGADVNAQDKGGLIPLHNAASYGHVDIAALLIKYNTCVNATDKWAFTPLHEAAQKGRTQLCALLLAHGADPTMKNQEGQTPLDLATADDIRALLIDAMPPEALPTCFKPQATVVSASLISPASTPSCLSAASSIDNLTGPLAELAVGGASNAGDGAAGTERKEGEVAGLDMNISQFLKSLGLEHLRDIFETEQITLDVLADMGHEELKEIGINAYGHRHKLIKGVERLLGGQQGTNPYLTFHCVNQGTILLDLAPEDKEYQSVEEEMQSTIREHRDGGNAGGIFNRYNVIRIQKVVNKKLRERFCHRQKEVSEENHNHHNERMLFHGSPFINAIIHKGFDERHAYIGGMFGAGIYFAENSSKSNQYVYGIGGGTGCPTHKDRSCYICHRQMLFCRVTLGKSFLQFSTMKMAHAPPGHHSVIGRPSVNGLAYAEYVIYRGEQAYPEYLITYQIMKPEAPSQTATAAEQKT
# T2: VPARP (Homo sapiens, UniProt Q9UKK3)
# T2 construct: The plasmid with the catalytic domain of VPARP, pET28b-p193cat; made in house; host or cells: E. coli Rosetta
# T2 sequence (Q9UKK3 369-573 limits assumed): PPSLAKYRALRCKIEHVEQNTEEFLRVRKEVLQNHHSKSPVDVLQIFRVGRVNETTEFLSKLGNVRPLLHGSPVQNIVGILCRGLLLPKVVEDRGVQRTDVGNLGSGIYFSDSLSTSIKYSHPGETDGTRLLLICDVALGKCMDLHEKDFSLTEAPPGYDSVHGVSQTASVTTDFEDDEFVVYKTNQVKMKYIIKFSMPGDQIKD
# T3: tankyrase-1 (Homo sapiens, UniProt O95271)
# T3 construct: The SAM and PARP domain of tankyrase was subcloned into pGEX-5X-1; made in house; host or cells: E. coli Rosetta
# T3 sequence (O95271 1030-1327): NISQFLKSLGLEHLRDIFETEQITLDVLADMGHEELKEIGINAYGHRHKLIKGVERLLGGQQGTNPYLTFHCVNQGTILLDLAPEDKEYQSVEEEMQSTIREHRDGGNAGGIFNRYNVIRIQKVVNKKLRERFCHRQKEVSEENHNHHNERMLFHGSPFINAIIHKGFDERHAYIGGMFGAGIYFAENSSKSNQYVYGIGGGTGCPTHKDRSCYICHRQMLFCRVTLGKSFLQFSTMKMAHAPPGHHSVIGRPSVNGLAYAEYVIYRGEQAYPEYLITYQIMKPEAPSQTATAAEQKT
# What was measured:
# [1] = target: T1, tankyrase-1; details: tankyrase-1 literature, β-NAD+ as substrate; cited from earlier work
# [2] = target: T4, PARP-1 (Homo sapiens, UniProt P09874); set-up: purchased Trevigen; details: PARP-1 literature, natural β-NAD+ substrate; cited from earlier work
# T4 sequence (P09874 whole entry): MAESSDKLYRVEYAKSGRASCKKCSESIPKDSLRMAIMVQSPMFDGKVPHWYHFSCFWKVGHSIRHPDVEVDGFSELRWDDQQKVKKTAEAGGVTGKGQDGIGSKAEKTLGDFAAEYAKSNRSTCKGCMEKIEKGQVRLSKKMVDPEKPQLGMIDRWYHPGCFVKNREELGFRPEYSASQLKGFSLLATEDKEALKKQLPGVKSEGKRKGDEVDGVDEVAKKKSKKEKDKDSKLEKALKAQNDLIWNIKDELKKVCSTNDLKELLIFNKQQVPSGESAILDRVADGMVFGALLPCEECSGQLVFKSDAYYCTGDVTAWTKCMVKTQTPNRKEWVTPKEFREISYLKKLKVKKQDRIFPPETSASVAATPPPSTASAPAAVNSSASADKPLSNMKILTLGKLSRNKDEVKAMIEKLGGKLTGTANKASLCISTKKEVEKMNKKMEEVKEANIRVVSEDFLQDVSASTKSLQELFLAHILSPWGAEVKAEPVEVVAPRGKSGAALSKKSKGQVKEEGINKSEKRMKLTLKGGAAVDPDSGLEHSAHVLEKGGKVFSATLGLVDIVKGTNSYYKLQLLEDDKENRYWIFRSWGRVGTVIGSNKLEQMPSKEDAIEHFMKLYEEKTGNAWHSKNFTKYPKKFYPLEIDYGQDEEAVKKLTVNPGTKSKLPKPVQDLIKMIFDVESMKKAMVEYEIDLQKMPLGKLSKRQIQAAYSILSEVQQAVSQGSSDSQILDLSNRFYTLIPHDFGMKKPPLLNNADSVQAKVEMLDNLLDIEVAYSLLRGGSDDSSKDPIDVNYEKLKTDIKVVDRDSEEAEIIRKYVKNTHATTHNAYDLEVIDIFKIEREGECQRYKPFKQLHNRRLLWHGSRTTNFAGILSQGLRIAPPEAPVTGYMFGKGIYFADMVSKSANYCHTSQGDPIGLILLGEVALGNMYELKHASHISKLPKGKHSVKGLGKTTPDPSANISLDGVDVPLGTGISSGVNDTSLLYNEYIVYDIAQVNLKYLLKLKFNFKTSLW
# [3] = test system: T5, Nc1ncnc2c1ncn2[C@@H]1O[C@H](COP(=O)(O)OP(=O)(O)OC[C@H]2O[C@@H](Oc3ccc([N+](=O)[O-])cc3)C(O)C2O)C(O)C1O; assay: Continuous colorimetric PARP kinetic assay with ADP-ribose-pNP, PARP-1; format: biochemical; details: other: PARP-1 activated with DNase digested DNA; substrate ADP-ribose-pNP; 405 nm; pH 8.0
# T5 construct: purchased Trevigen
# Description: (§1) With the calorimetric substrate ADP-ribose-pNP in hand, a continuous calorimetric assay for PARP activity was developed and the kinetic parameters for three PARP isozymes were determined. In a 96-well plate, a range of concentrations of ADP-ribose-pNP in PARP assay buffer were incubated with either PARP-1 (DNase digested DNA was added to activate PARP-1), tankyrase-1 (refers to “active domain,” see Supporting Information), or VPARP (also refers to the “active domain”), and the optical density at 405 nm was measured every 60 seconds over a 2 hour time period. Change in absorbance was assessed in triplicate, and blanks containing 0 to 700 μM ADP-ribose-pNP in PARP assay buffer were also measured over the same time period. The absorbance of a range of p-nitrophenol concentrations was determined at 405 nm, and the slope of this calibration curve (see Supporting Information) was used to convert the absorbencies to moles of product generated; in this way the kinetic parameters for PARP-1, tankyrase-1, and VPARP were calculated (see Table 1 and FIG. 2).
# Preparation of damaged DNA for PARP-1. 500 μL of Herringsperm DNA (10 mg/ml) was added to 100 mL DNase buffer (400 mM Tris-HCl, 100 mM MgSO4, and 10 mM CaCl2, pH 8.0), along with 50 μL of DNase (1 unit/mL). This solution was first incubated at 37° C. for 1 minute and then heated at 90° C. for 20 minutes to inactivate the DNase. Damaged DNA was used without any further purification.
# Kinetics of PARP-1. A 160 μL volume of PARP-1 (0.45 mg/mL) was premixed with 262.4 μL of the damaged herringsperm DNA and 2777.6 μl of PARP assay buffer. This mixture (known as activated PARP in assay buffer) was allowed to equilibrate on ice for 4 hours. The ADP-ribose-pNP colorimetric substrate was diluted from a 5000 μM stock in PARP assay buffer directly into the wells of a 96 well plate. […] The plate was then read on a SpectraMax plus UV/Vis plate reader (Molecular Devices), at 405 nm for 2 hours, reading once every minute with mixing between reads.
# (§2) Data analysis. […] Graphs were analyzed using Table Curve 2D.
# [4] = target: T2, VPARP; assay: Continuous colorimetric PARP kinetic assay with ADP-ribose-pNP, VPARP active domain; format: biochemical; details: substrate ADP-ribose-pNP, 405 nm
# Description: (§3) With the calorimetric substrate ADP-ribose-pNP in hand, a continuous calorimetric assay for PARP activity was developed and the kinetic parameters for three PARP isozymes were determined. In a 96-well plate, a range of concentrations of ADP-ribose-pNP in PARP assay buffer were incubated with either PARP-1 (DNase digested DNA was added to activate PARP-1), tankyrase-1 (refers to “active domain,” see Supporting Information), or VPARP (also refers to the “active domain”), and the optical density at 405 nm was measured every 60 seconds over a 2 hour time period. Change in absorbance was assessed in triplicate, and blanks containing 0 to 700 μM ADP-ribose-pNP in PARP assay buffer were also measured over the same time period. The absorbance of a range of p-nitrophenol concentrations was determined at 405 nm, and the slope of this calibration curve (see Supporting Information) was used to convert the absorbencies to moles of product generated; in this way the kinetic parameters for PARP-1, tankyrase-1, and VPARP were calculated (see Table 1 and FIG. 2). […]
# (§4) The plate was divided in half with protein added to half the wells and the other half serving as blanks containing only PARP assay buffer and substrate. […] The plate was then read on a SpectraMax plus 384 UV/Vis plate reader (Molecular Devices), at 405 nm for 2 hours with observations performed once every minute. […]
# [5] = target: T4, PARP-1; assay: Continuous colorimetric PARP kinetic assay with ADP-ribose-pNP, PARP-1; format: biochemical; set-up: purchased Trevigen
# Description: as §1
# Preparation of damaged DNA for PARP-1. […]
# Kinetics of PARP-1. […] The plate was then read on a SpectraMax plus UV/Vis plate reader (Molecular Devices), at 405 nm for 2 hours, reading once every minute with mixing between reads.
# as §2
# [6] = target: T3, tankyrase-1; assay: Continuous colorimetric PARP kinetic assay with ADP-ribose-pNP, tankyrase-1 active domain; format: biochemical
# Description: as §1
# Kinetics of VPARP and Tankyrase-1. The ADP-ribose-pNP colorimetric substrate was diluted from a 10 mM stock in PARP assay buffer to 1142.9 μM. From this stock, dilutions into PARP assay buffer were made in 15×1.7 mL tubes so that the volume was 490 μL. This was enough to perform the experiment in triplicate, with additional wells (no protein) to serve as blanks for each substrate concentration. The concentration of substrate in each tube was made such that 70 μL from each tube could be added to the wells of a 96 well plate. When each well was brought to the final volume of 100 μL, the desired final concentration was reached. See FIG. 2B and FIG. 5B for tank-ad and VPARP substrate concentrations, respectively. Concentrations ranged from 0 to 700 μM with a finer distribution at lower substrate concentrations.
# The plate was divided in half with protein added to half the wells and the other half serving as blanks containing only PARP assay buffer and substrate. After adding 70 μL of substrate from each tube to 3 wells on the protein side or 3 wells of the blank side, 30 μL of PARP assay buffer was added to all the wells of the blank side. Next, 30 μL of the enzyme was added to each of the wells on the protein half of the plate to initiate the reaction, with a final concentration of tankyrase per well of 21.8 μM and the final concentration of VPARP per well of 19.8 μM. The plate was then read on a SpectraMax plus 384 UV/Vis plate reader (Molecular Devices), at 405 nm for 2 hours with observations performed once every minute. Mixing was conducted between observations.
# as §2
# [7] = target: bovine serum albumin (Bos taurus, UniProt P02769); assay: Control experiment with BSA (non-specific substrate cleavage); format: biochemical; details: 20 μM BSA, monitored 2 hours
# Chain of bovine serum albumin (P02769 25-607): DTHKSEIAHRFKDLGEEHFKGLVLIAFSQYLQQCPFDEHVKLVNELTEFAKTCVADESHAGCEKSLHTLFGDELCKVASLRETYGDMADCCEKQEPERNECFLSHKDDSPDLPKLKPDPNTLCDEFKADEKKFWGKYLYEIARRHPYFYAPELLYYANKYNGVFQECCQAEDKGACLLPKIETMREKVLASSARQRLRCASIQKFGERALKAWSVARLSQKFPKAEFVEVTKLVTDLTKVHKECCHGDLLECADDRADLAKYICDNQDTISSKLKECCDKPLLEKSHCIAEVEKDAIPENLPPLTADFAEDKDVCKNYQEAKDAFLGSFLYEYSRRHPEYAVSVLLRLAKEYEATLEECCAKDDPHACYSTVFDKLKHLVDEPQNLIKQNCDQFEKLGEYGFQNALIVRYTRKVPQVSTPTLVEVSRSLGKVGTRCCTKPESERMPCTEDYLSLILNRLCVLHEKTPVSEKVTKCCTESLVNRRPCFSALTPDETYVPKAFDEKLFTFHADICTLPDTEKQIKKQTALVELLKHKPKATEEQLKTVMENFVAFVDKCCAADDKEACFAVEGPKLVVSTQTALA
# Description: While exact kinetic parameters for PARP-1 can vary with the assay used, for PARP-1 the KM value with ADP-ribose-pNP is consistent with that of the natural β-NAD^+ substrate, while the Vmax is approximately 100 fold lower with the calorimetric substrate (see Table 1). […] To our knowledge, no data is available on the kinetic parameters of VPARP with β-NAD^+.
# Control experiment with BSA. To determine that substrate cleavage is specific to the PARP family of enzymes, 16 μL of BSA was added to 81.5 μL of PARP assay buffer in a 96 well plate so that the final concentration was 20 μM in protein. The experiment was performed in triplicate along with controls that contained PARP assay buffer only. To both the wells containing only buffer or buffer and BSA, 2.5 μL of a 10 mM stock of the substrate was added to start the reaction. The plate was monitored at 405 nm for 2 hours.
# [8] = substrate: Nc1ncnc2c1ncn2[C@@H]1O[C@H](COP(=O)(O)OP(=O)(O)OC[C@H]2O[C@@H](Oc3ccc([N+](=O)[O-])cc3)C(O)C2O)C(O)C1O; assay: Continuous colorimetric PARP kinetic assay with ADP-ribose-pNP, VPARP active domain; format: biochemical; details: other: VPARP active domain; substrate ADP-ribose-pNP; 405 nm
# Description: as §3, §4
# [9] = tankyrase-1, versus literature values
# [10] = tankyrase-1 active domain, substrate ADP-ribose-pNP, 405 nm
molecule,measurement,setting,value
"NC(=O)c1ccc[n+]([C@@H]2O[C@H](COP(=O)([O-])OP(=O)(O)OC[C@H]3O[C@@H](n4cnc5c(N)ncnc54)[C@H](O)[C@@H]3O)[C@@H](O)[C@H]2O)c1 [β-NAD^+, nicotinamide adenine dinucleotide]",Km,[1],1500 µM
same,kcat,[1],0.71 s⁻¹
same,Km,[2],59 to 278 µM
same,Vmax,[2],0.2 to 2.4 µmol/min/mg
same,kcat,[2],0.41 s⁻¹
PARP-1 (Homo sapiens),Km,[3],151 µM
same,Vmax,[3],0.0013 µmol/min/mg
same,kcat,[3],0.025 s⁻¹
Nc1ncnc2c1ncn2[C@@H]1O[C@H](COP(=O)(O)OP(=O)(O)OC[C@H]2O[C@@H](Oc3ccc([N+](=O)[O-])cc3)C(O)C2O)C(O)C1O (stereo partly shown) [ADP-ribose-pNP],Vmax,[4],2.03e-06 µmol/min/mg
same,Vmax fold lower with colorimetric substrate than with natural β-NAD+ substrate,"[5]; PARP-1, versus literature values",approximately 100 fold
same,Vmax,"[5]; PARP-1 activated with DNase digested DNA, substrate ADP-ribose-pNP, 405 nm",0.0013 µmol/min/mg
same,KM fold lower than literature value with β-NAD+ as substrate,[6]; [9],approximately 18 fold
same,Vmax compared to literature values with β-NAD+ as substrate,[6]; [9],significantly lower
same,Km,[6]; [10],82 µM
same,Vmax,[6]; [10],1.81e-05 µmol/min/mg
same,kcat,[6]; [10],1.88e-05 s⁻¹
same,signal at 405 nm on incubation with bovine serum albumin,[7],no signal
"VPARP (Homo sapiens) (protein, The plasmid with the catalytic domain of VPARP, pET28b-p193cat; made in house; host or cells: E. coli Rosetta) PPSLAKYRALRCKIEHVEQNTEEFLRVRKEVLQNHHSKSPVDVLQIFRVGRVNETTEFLSKLGNVRPLLHGSPVQNIVGILCRGLLLPKVVEDRGVQRTDVGNLGSGIYFSDSLSTSIKYSHPGETDGTRLLLICDVALGKCMDLHEKDFSLTEAPPGYDSVHGVSQTASVTTDFEDDEFVVYKTNQVKMKYIIKFSMPGDQIKD",Km,[8],46 µM
same,Vmax,[8],2.03e-06 µmol/min/mg
